# Literature values as cited in patent US5613958A, “Transdermal delivery systems for the modulated administration of drugs” (PP Holdings Inc., priority 1995, dated 1997).
# Settings: for accumulation in plasma: during continuous ISDN therapy
SMILES,accumulation in plasma,antianginal efficacy (dose regimens letting IS-5-MN fall below 100 ng/ml before next dose),rate of elimination (metabolite of ISDN)
"O=[N+]([O-])O[C@H]1CO[C@H]2[C@@H]1OC[C@H]2O [IS-2-MN, isosorbide 2-mononitrate]",accumulate in the plasma,,
"O=[N+]([O-])O[C@@H]1CO[C@H]2[C@@H]1OC[C@@H]2O [IS-5-MN, isosorbide 5-mononitrate]",accumulate in the plasma,continuous antianginal efficacy,slowest rate of elimination
